“Also recorded” adds a separate entry of the source.
What was measured:
[1] = system: isolated rat cardiac myocytes; assay: Calcein leak from isolated rat cardiac myocytes incubated with IAPP oligomers; type: cell-based; conditions: incubation for 36 hours
Text: (§1) The level of brain natriuretic peptide (BNP), a molecular marker of hypertrophy, is elevated (by 100±30%) in hearts from pre-diabetic HIP rats vs. age-matched control littermates and further increased with diabetes development (FIG. 12B). […] In contrast, the BNP level is not altered in pre-diabetic UCD-T2DM rats and only increases after the full development of diabetes (FIG. 12B). […] This may indicate that possible pores created in the sarcolemma may be smaller in size than the calcein molecule or significant sarcolemmal damage may require a longer time of incubation.

[2] = system: sarcolemma of cardiac myocytes; assay: Atomic force microscopy of sarcolemma defect depths on cardiac myocytes; type: cell-based; conditions: cardiac myocytes incubated with IAPP oligomers
Text: FIG. 16 illustrates distribution of sarcolemma defect depths derived from AFM data.
(§2) Oligomerization of Aβ peptides is associated with Alzheimer's disease, and Aβ and IAPP have the same molecular weight sizes and are about 40% identical at the amino acid level.

[3] = system: sarcolemma in cardiac myocytes; assay: Cryo-electron microscopy of cardiac myocytes incubated with IAPP oligomers; type: cell-based; conditions: 50 μM IAPP oligomers for 36 hours
Description: FIG. 13 illustrates EM images of cardiac myocytes. Control (A-B) vs. incubated with 50 μM IAPP oligomers for 36 hours (C-H).
as §1

[4] = system: isolated rat cardiac myocytes; conditions: external human IAPP; Bell et al. 1995; cited from earlier work
[5] = Oligomer formation controls, dot blot with A-11 oligomer-specific antibody; type: physicochemical; conditions: 50 μM recombinant protein incubated at room temperature for 24 hours
Text: Dot blots with the A-11 antibody, which is specific for toxic oligomers, show the presence of toxic oligomers amyloidogenic entities within the heart in patients with overweight/obesity (OW/OB) and diabetes (DM) (FIG. 4). Non-failing (NF) hearts from lean (L), L-NF group (control), lack toxic oligomers. The percentage of strong A-11 immunoreactivity signals (darker dots) is somewhat larger in hearts from the patients with diabetes, which also correlates with the western blot analysis indicating rich accumulation of IAPP entities with molecular weights greater than ˜16 kDa in these hearts. Apparently, IAPP oligomers are equally present in both ischemic (ICM) and non-ischemic (DCM) hearts (FIG. 4). […] Dots on the upper, right side corner show positive (human IAPP) and negative (rat IAPP) controls for oligomer formation (50 μM recombinant protein incubated at room temperature for 24 hours) (FIG. 4). Before the test with A-11 antibody, all protein homogenate samples were incubated with Protein A-coated magnetic beads to extract IgG, a possible source of cross-reactivity.

rat cardiac myocytes = assay: Ca2+ transients in isolated rat cardiac myocytes incubated with exogenous IAPP, field stimulation; type: cell-based
Description: FIG. 8 illustrates that exogenous IAPP oligomers increase Ca^2+ transient amplitude in isolated rat cardiac myocytes.(A) Representative experiments in a control (top panel) myocyte and a cell pre-incubated with 50 μM hIAPP (bottom panel). (B-C) Effect of rat (B) and human (C) IAPP on Ca^2+ transient amplitude. […] For each group, measurements were done on ≧6 myocytes from 3 different rats.
Rat cardiac myocytes were incubated with exogenous human (amyloidogenic) and rat (non-amyloidogenic) IAPP and measured Ca2+ transients produced by field-stimulation at various frequencies (FIG. 8A).
as §2

[6] = 50 μM IAPP, all stimulation frequencies

Row | Substance | calcein leak from the cytoplasm [1] | sarcolemma thinning (density of thin patches, AFM) [2] | structural modification of the sarcolemma (EM) [3] | hypertrophy induction [4] | oligomer formation (A-11 dot blot control) [5] | Ca2+ transient amplitude (rat cardiac myocytes; 5 μM IAPP, monomeric form) | Ca2+ transient amplitude (rat cardiac myocytes; [6]) | Ca2+ transient amplitude (rat cardiac myocytes; 50 μM IAPP, all stimulation frequencies, listed as Human IAPP)
1 | IAPP oligomers: exogenous oligomers that human IAPP rapidly forms at 50 μM (KCNTATCATQLANFLVHSSNNFGAILSSTNVGSNTY) | does not reveal release of calcein; also recorded: does not induce significant calcein leak | induce sarcolemma thinning; also recorded: Density of thin sarcolemma patches is higher | significant structural modification of the sarcolemma | – | – | – | – | –
2 | human IAPP: human islet amyloid polypeptide, amyloidogenic, SEQ ID NO: 1 KCNTATCATQRLANFLVHSSNNFGAILSSTNVGSNTY (KCNTATCATQLANFLVHSSNNFGAILSSTNVGSNTY; listed as Homo sapiens) | – | – | – | induces hyperthrophy | positive | modest increase | marked rise | significantly increased
3 | rat IAPP: rat islet amyloid polypeptide, non-amyloidogenic, SEQ ID NO: 2 KCNTATCATQRLANFLVRSSNNLGPVLPPTNVGSNTY (KCNTATCATQLANFLVRSSNNLGPVLPPTNVGSNTY; listed as Mus musculus) | – | – | – | – | negative | modest increase | modest, not significant effect; also recorded: no further effect | –

Reference: patent US20130143804A1, “Islet Amyloid Polypeptide Toxic Oligomer is a Biomarker of Heart or Kidney Failure in Type-2 Diabetes Mellitus” (Trustees of the University of Pennsylvania, priority 2010, published 2013)
